Assay results: ChEMBL document CHEMBL1909046, “DrugMatrix in vitro pharmacology data”

What was measured:
[1] = DRUGMATRIX: Sodium/nucleoside co-transporter radioligand binding (ligand: nitrobenzylthioinosine); assay type: cell membranes, Cavia porcellus, Dunkin-Hartley, Cerebral cortex, Membrane; details: Not Active = under 50% inhibition at 10 µM
[2] = molecular target: T1, 5-hydroxytryptamine receptor 2C (Homo sapiens, UniProt P28335); assay: DRUGMATRIX: Serotonin (5-Hydroxytryptamine) 5-HT2C radioligand binding (ligand: [3H] Mesulergine); assay type: cell membranes, CHO-K1, Membrane; details: Not Active = under 50% inhibition at 10 µM
T1 sequence (P28335 whole entry): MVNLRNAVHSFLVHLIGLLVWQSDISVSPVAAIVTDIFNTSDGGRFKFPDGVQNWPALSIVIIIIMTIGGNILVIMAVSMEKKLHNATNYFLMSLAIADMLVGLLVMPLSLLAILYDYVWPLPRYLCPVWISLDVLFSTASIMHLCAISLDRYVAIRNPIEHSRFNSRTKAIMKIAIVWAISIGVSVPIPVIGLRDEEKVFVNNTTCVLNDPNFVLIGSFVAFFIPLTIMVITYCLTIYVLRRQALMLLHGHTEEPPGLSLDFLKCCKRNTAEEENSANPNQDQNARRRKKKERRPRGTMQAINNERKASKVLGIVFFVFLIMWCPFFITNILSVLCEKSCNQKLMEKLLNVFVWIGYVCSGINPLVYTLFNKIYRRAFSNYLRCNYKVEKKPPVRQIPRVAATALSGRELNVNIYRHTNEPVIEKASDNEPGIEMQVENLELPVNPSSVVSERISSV

[3] = molecular target: Carbonic anhydrase 2 (Homo sapiens, UniProt P00918); assay: DRUGMATRIX: Carbonic Anhydrase II enzyme inhibition (substrate: 4-Nitrophenyl acetate (4-NPA)); assay type: tissue-based; details: erythrocyte; Not Active = under 50% inhibition at 10 µM
[4] = molecular target: T2, C-C chemokine receptor type 4 (Homo sapiens, UniProt P51679); assay type: cell membranes, Membrane; details: chem-1; note: in other assays of this panel Not Active means under 50% inhibition at 10 µM
T2 sequence (P51679 whole entry): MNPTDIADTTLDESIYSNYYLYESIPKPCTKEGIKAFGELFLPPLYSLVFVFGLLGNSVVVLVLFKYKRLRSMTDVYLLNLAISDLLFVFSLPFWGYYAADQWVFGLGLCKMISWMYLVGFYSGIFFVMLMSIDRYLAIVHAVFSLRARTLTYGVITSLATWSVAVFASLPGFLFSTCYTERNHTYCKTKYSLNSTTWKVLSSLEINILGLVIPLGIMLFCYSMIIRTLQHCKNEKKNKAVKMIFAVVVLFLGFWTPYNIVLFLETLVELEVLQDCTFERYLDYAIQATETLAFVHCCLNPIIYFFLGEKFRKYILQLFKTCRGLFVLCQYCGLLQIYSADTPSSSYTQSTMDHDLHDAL

[5] = DRUGMATRIX: Platelet-Derived Growth Factor (PDGF) radioligand binding (ligand: [125I] PDGF); assay type: cell-based; details: nih3t3; Not Active = under 50% inhibition at 10 µM
[6] = molecular target: Mitogen-activated protein kinase 14 (Homo sapiens, UniProt Q16539); set-up: species or system Escherichia coli;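 note: inhibition of p38alpha enzyme activity in a biochemical kinase assay, with myelin basic protein serving as substrate; in other assays of this panel Not Active means under 50% inhibition at 10 µM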
Mitogen-activated protein kinase 14, sequence (Q16539 whole entry): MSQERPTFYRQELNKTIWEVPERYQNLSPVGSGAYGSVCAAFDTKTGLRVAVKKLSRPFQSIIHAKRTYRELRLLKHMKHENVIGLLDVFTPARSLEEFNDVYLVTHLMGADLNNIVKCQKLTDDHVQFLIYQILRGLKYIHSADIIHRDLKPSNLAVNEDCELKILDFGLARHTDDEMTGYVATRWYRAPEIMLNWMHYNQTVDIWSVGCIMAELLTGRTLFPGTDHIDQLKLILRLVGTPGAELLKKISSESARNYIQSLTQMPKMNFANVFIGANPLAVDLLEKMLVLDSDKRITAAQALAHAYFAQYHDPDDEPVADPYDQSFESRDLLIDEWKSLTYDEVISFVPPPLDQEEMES

[7] = molecular target: Tyrosine-protein kinase Lck (Homo sapiens, UniProt P06239); assay: DRUGMATRIX: Protein Tyrosine Kinase, LCK enzyme inhibition (substrate: Poly(Glu:Tyr)); assay type: cell-based, Insect cells; details: insect cells; Not Active = under 50% inhibition at 10 µM
Tyrosine-protein kinase Lck, sequence (P06239 whole entry): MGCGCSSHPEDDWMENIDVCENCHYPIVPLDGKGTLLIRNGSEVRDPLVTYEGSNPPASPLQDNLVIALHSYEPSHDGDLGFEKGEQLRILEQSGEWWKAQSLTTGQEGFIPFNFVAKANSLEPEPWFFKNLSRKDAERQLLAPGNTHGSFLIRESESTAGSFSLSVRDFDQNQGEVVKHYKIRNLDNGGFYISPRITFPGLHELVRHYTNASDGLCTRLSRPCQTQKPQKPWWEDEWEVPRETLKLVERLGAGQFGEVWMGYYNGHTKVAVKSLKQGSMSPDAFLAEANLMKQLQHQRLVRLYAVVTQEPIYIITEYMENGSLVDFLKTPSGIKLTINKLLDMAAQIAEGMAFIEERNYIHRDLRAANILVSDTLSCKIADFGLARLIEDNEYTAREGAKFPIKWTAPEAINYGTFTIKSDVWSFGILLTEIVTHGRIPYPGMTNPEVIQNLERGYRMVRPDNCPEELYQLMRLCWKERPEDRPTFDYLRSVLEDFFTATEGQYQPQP

Row | SMILES | IC50 [1] | Ki [1] | IC50 ([2]; cho-k1) | IC50 [3] | IC50 [4] | IC50 [5] | Ki [5] | IC50 ([6]; read-out: IC50) [nM] | IC50 [7] | IC50 [6] | IC50 ([2]; read-out: IC50) [nM] | Ki ([2]; read-out: Ki) [nM]
1 | O=C(c1ccccc1C(F)(F)F)N1CCC(Cc2ccccc2)CC1 | Not Active | Not Active | Not Active | Not Active | Not Active | Not Active | Not Active | 715 | Not Active | – | – | –
2 | O=C/C=C/c1ccccc1 | Not Active | Not Active | Not Active | Not Active | Not Active | Not Active | Not Active | – | Not Active | Not Active | – | –
3 | Nc1ccc2c3c(cccc13)C(=O)NC2=O | Not Active | Not Active | Not Active | Not Active | Not Active | Not Active | Not Active | – | Not Active | Not Active | – | –
4 | COc1ccc(C(=O)N2CCCC2=O)cc1 | Not Active | Not Active | Not Active | Not Active | Not Active | Not Active | Not Active | – | Not Active | Not Active | – | –
5 | O=c1cnn([C@@H]2O[C@H](CO)[C@@H](O)[C@H]2O)c(=O)[nH]1 [6-AZAURIDINE] | Not Active | Not Active | Not Active | Not Active | Not Active | Not Active | Not Active | – | Not Active | Not Active | – | –
6 | CC[C@H](C)[C@H]1O[C@]2(C=C[C@@H]1C)C[C@@H]1C[C@@H](C/C=C(\C)[C@@H](O[C@H]3C[C@H](OC)[C@@H](O[C@H]4C[C@H](OC)[C@@H](O)[C@H](C)O4)[C@H](C)O3)[C@@H](C)/C=C/C=C3\CO[C@@H]4[C@H](O)C(C)=C[C@@H](C(=O)O1)[C@]34O)O2.CO[C@H]1C[C@H](O[C@H]2[C@H](C)O[C@@H](O[C@@H]3/C(C)=C/C[C@@H]4C[C@@H](C[C@]5(C=C[C@H](C)[C@@H](C(C)C)O5)O4)OC(=O)[C@@H]4C=C(C)[C@@H](O)[C@H]5OC/C(=C\C=C\[C@@H]3C)[C@]54O)C[C@@H]2OC)O[C@@H](C)[C@@H]1O [ABAMECTIN] | Not Active | Not Active | Not Active | Not Active | Not Active | Not Active | Not Active | – | Not Active | Not Active | – | –
7 | NCCCC(O)(P(=O)(O)O)P(=O)(O)O [ALENDRONIC ACID] | Not Active | Not Active | Not Active | Not Active | Not Active | Not Active | Not Active | – | Not Active | Not Active | – | –
8 | Cc1nnc2n1-c1ccc(Cl)cc1C(c1ccccc1)=NC2 [ALPRAZOLAM] | Not Active | Not Active | Not Active | Not Active | Not Active | Not Active | Not Active | – | Not Active | Not Active | – | –
9 | Cn1c(=O)c2[nH]cnc2n(C)c1=O.Cn1c(=O)c2[nH]cnc2n(C)c1=O.NCCN [AMINOPHYLLINE] | Not Active | Not Active | Not Active | Not Active | Not Active | Not Active | Not Active | – | Not Active | Not Active | – | –
10 | CCC1(CCC(C)C)C(=O)NC(=O)NC1=O [AMOBARBITAL] | Not Active | Not Active | Not Active | Not Active | Not Active | Not Active | Not Active | – | Not Active | Not Active | – | –
11 | CC1(C)S[C@@H]2[C@H](NC(=O)[C@H](N)c3ccccc3)C(=O)N2[C@H]1C(=O)O [AMPICILLIN] | Not Active | Not Active | Not Active | Not Active | Not Active | Not Active | Not Active | – | Not Active | Not Active | – | –
12 | COc1ccc(C2C(=O)c3ccccc3C2=O)cc1 [ANISINDIONE] | Not Active | Not Active | Not Active | Not Active | Not Active | Not Active | Not Active | – | Not Active | Not Active | – | –
13 | O=C1O[C@H]([C@@H](O)CO)C(O)=C1O [ASCORBIC ACID] | Not Active | Not Active | Not Active | Not Active | Not Active | Not Active | Not Active | – | Not Active | Not Active | – | –
14 | CN1[C@@H]2CC[C@H]1C[C@@H](OC(=O)C(CO)c1ccccc1)C2 (some centres not stated) [ATROPINE] | Not Active | Not Active | – | Not Active | Not Active | Not Active | Not Active | – | Not Active | Not Active | – | –
15 | CC(C(=O)O)c1ccc2oc(-c3ccc(Cl)cc3)nc2c1 (configuration not stated) [BENOXAPROFEN] | Not Active | Not Active | Not Active | Not Active | Not Active | Not Active | Not Active | – | Not Active | Not Active | – | –
16 | COc1ccc2cc3[n+](cc2c1OC)CCc1cc2c(cc1-3)OCO2.[Cl-] [BERBERINE CHLORIDE] | Not Active | Not Active | Not Active | Not Active | Not Active | Not Active | Not Active | – | Not Active | Not Active | – | –
17 | O=C(O)CCNC(=O)c1ccccc1 [BETAMIPRON] | Not Active | Not Active | Not Active | Not Active | Not Active | Not Active | Not Active | – | Not Active | Not Active | – | –
18 | CC(=O)Oc1ccc(C(c2ccc(OC(C)=O)cc2)c2ccccn2)cc1 [BISACODYL] | Not Active | Not Active | Not Active | Not Active | Not Active | Not Active | Not Active | – | Not Active | Not Active | – | –
19 | Cc1cc2c(OCC(CNC(C)(C)C)OC(=O)c3ccccc3)cccc2[nH]1 (configuration not stated) [BOPINDOLOL] | Not Active | Not Active | Not Active | Not Active | Not Active | Not Active | Not Active | – | Not Active | Not Active | – | –
20 | Brc1c(NC2=NCCN2)ccc2nccnc12 [BRIMONIDINE] | Not Active | Not Active | Not Active | Not Active | Not Active | Not Active | Not Active | – | Not Active | Not Active | – | –
21 | CN(C)[C@@H]1C(O)=C(C(N)=O)C(=O)[C@@]2(O)C(O)=C3C(=O)c4c(O)ccc(Cl)c4[C@@](C)(O)[C@H]3C[C@@H]12 [CHLORTETRACYCLINE] | Not Active | Not Active | Not Active | Not Active | Not Active | Not Active | Not Active | – | Not Active | Not Active | – | –
22 | CN/C(=N\CCSCc1nc[nH]c1C)NC#N [CIMETIDINE] | Not Active | Not Active | Not Active | Not Active | Not Active | Not Active | Not Active | – | Not Active | Not Active | – | –
23 | COc1cc(N)c(Cl)cc1C(=O)NC1CCN(CCCOc2ccc(F)cc2)CC1OC (configuration not stated) [CISAPRIDE] | Not Active | Not Active | – | Not Active | Not Active | Not Active | Not Active | – | Not Active | Not Active | – | –
24 | O=c1cc(N2CCOCC2)oc2c(-c3ccccc3)cccc12 [LY-294002] | Not Active | Not Active | – | Not Active | Not Active | Not Active | Not Active | – | – | Not Active | 1000 | 525
25 | CCCNCC(O)COc1ccccc1C(=O)CCc1ccccc1 (configuration not stated) [PROPAFENONE] | Not Active | Not Active | – | Not Active | Not Active | Not Active | Not Active | – | Not Active | Not Active | – | –
